Assay results taken from US20170049786A1, “MTOR PATHWAY INHIBITORS FOR TREATING OCULAR DISORDERS” (Santen Pharmaceutical Co., Ltd., priority 2009, published 2017).
Values joined by “and” are separate entries in the source; they are usually repeats but may differ in a detail not shown here. Identical values can stand only once. Like-named read-outs stand apart in the source and are kept apart here.

Assays:
[1] = tested on: Human umbilical vein endothelial cells (HUVEC); test: Inhibition of VEGF-induced proliferation, BrdU incorporation; assay type: cell-based; settings: for IC50: Homo sapiens, 12.5 ng/mL VEGF
Description: The objective of this study was to evaluate the anti-proliferative effects of various therapeutic agents (everolimus, sirolimus, tacrolimus, temsirolimus, zotarolimus, PP242, PP30, Palomid 529, WYE-354, and KU-0063794) by measuring bromodeoxyuridine (BrdU) incorporation into cellular DNA. The therapeutic agents were dissolved directly into class A vials in less than 1% DMSO. Human umbilical vein endothelial cells (HUVEC) were obtained from Lonza (Catalog No. CC-2517). Vascular endothelial growth factor (VEGF) was obtained from R&D Systems (Catalog No. 293-VE-010). A BrdU Assay kit was obtained from Calbiochem (Catalog No. Q1A58). The inhibitory effect of rapamycin on HUVEC proliferation has been described (Kwon et al., Invest Opththamol Vis Sci, 46:454-4699, 2005).
Early passage HUVEC were plated at 2,000 cells/well in 96-well plates for 24 hours. The cells were then starved for 24 hours by replacing medium with medium lacking serum and HUVEC medium growth factors. After overnight starvation, wells were inoculated with (i) medium containing 2.5% serum and 12.5 ng/mL VEGF, (ii) medium with 12.5 ng/mL VEGF, (iii) medium with 2.5% serum or (iv) medium without serum or VEGF. Control compounds and test compounds were added at eight to eleven concentrations of each compound. All wells were set up in four replicates. BrdU was added to the medium 72 hours after feeding. After the overnight labeling, the cells were assayed according the manufacturers instructions and the plates were read at OD450. Average absorbance for replicate wells was used to calculate IC50 for the compounds of Table 72-1.

[2] = cited from earlier work
[3] = tested on: retinal and choroidal neovascularization (RNV and CNV); test: Inhibition of retinal and choroidal neovascularization in vivo (subretinal […]/bFGF/VEGF model, fluorescein angiography); design: species or system New Zealand white rabbits; settings: six microliter intravitreal dose of 2% agent in 4% ethanol, 94% PEG400 on Day 8; compared with 50 microliter AVASTIN (25 mg/ml)
Description: The objective of this study was to evaluate the effects of various therapeutic agents (everolimus, sirolimus, temsirolimus, and zotarolimus) on retinal and choroidal neovascularization (RNV and CNV) in a rabbit model (Qiu et al., Exp Eye Res, 83:141-152, 2006). Liquid formulations containing 2% (w/w) of the therapeutic agents were prepared in 4% (w/w) ethanol, and 94% (w/w) PEG400. As a positive control, a formulation containing 25 mg/ml AVASTIN was used. As a negative control, vehicle (4% ethanol, 96% PEG400) was used. Recombinant human basic fibroblast growth factor (bFGF) and vascular endothelial growth factor (VEGF) were obtained from R&D Systems. New Zealand white rabbits were used in this study.
On Day 1, the right eye of each animal received a subretinal injection of 10-20 μL of […] containing 10 μg/0.1 mL b-FGF and 2 μg/0.1 mL VEGF. […]-containing formulations are kept on ice until administered. Briefly, the conjunctiva was opened and a small slit in the sclera was made to expose the vitreous. A cannula connected to a tuberculin syringe was inserted into the subretinal space and the […]/growth factor combination was delivered. The scleral and conjunctival opening were closed with a 7-0 Vicryl suture. […]

[4] = Solubility profiles of therapeutic agents (Table 71-1); settings: for physical state when formulated in PEG400: 3% therapeutic agent and 97% PEG400
Description: Various therapeutic agents (e.g., rapalogs and/or mTOR inhibitors) were formulated as liquid solutions or suspensions for ophthalmic administration by injection. The therapeutic agents of exemplary formulations were as follows: everolimus, sirolimus, temsirolimus, zotarolimus, PP242, PP30 and palomid 529.
Liquid formulations containing 3% therapeutic agent (everolimus, sirolimus, temsirolimus or zotarolimus) and 97% PEG400 were prepared.

in vivo = settings: rabbit
Description: Both eyes (or one eye depending on the study) of each animal received one or two drops (40 μl per drop) of the studied formulations using a calibrated pipette on day 0 (day of dosing).
For Tables 3-6, the solution of Example 46 (formulation #340) was administered two drops twice a day on both eyes, one time for Group I, two drops once a day on one eye, one time for Group II, and two drops once a day on both eyes for 6 days in Group III. In Group II, the right eye (OD) but not the left eye (OS) received eye drops. In a further study, one drop of the formulation #340 (40 μL containing 880 μg rapamycin) was administered on day zero.
For FIGS. 5 and 6, the aqueous rapamycin-containing formulations #329 and #330 of Table 1 were administered two drops once or twice a day for up to 28 days. For FIGS. 7 and 8, the aqueous rapamycin-containing formulations #331 and #332 of Table 1 were administered two drops twice a day for 6 days.
For FIG. 10A-B one drop of an aqueous or a non-aqueous formulation containing about 0.2% rapamycin were administered to both eyes of rabbit subjects once a day for six days (day 0 to day 6). As used herein, the terms “aqueous” and “hydrophilic” refer to formulations in which the dominant component is an aqueous compound such as water (e.g., formulations #342 and #342 of Table 1), while the terms “non-aqueous” and “lipophilic” refer to formulation in which the dominant component is a non-aqueous compound such as PEG 400 (e.g., formulations #344 and #345 of Table 1). Rapamycin concentrations in the cornea, retina choroid and blood were measured at day 7 and day 14.
For FIG. 11 one drop of a non-aqueous formulation containing about 0.2% rapamycin (e.g., formulations #344 or #345) was administered to both eyes of rabbit subjects once a day on day 0, 7, 14 and 21. Rapamycin concentrations in the cornea, retina choroid and aqueous humor were measured on days 3, 10, 17, 24 and 28.

[5] = Pilot pharmacokinetic study, intravitreal injection of rapalog/mTOR inhibitor formulations; concentration in the vitreous (FIGS. 17, 19, 20); settings: 330 mcg by intravitreal injection of 10 μl of 3% agent in 97% PEG400; FIG. 17
Description: In a pilot pharmacokinetic study, 330 mcg of the therapeutic agent was administered to rabbits by intravitreal injection of a 10 μl volume.
In a pilot pharmacokinetic study, 220 mcg of the therapeutic agent was administered to rabbits by intravitreal injection of a 10 μl volume.

Structure (SMILES): CO[C@H]1C[C@@H]2CC[C@@H](C)[C@@](O)(O2)C(=O)C(=O)N2CCCC[C@H]2C(=O)O[C@H]([C@H](C)C[C@@H]2CC[C@H](n3cnnn3)[C@H](OC)C2)CC(=O)[C@H](C)/C=C(\C)[C@@H](O)[C@@H](OC)C(=O)[C@H](C)C[C@H](C)/C=C/C=C/C=C/1C [zotarolimus]
- IC50 [1]: 1.78 nM
- Solubility, DMSO ([2]; literature values): >1 mg/mL
- Solubility, Ethanol ([2]; literature values): >100 mg/mL
- Solubility, Aqueous ([2]; pH 6.5, literature value): 0.47 mcg/ml* pH 6.5
- Solubility, Aqueous ([2]; pH 7.4, literature value): 0.53 mcg/ml* pH 7.4
- inhibition of neovascular disease (fluorescein angiography grading) [3]: inhibited neovascular disease to a greater extent than a 50 microliter dose of AVASTIN

Structure (SMILES): CO[C@H]1C[C@@H]2CC[C@@H](C)[C@@](O)(O2)C(=O)C(=O)N2CCCC[C@H]2C(=O)O[C@H]([C@H](C)C[C@@H]2CC[C@@H](OCCO)[C@H](OC)C2)CC(=O)[C@H](C)/C=C(\C)[C@@H](O)[C@@H](OC)C(=O)[C@H](C)C[C@H](C)/C=C/C=C/C=C/1C [everolimus]
- Solubility, PEG 400 [4]: >624 mg/g
- physical state when formulated in PEG400 [4]: went into solution
- IC50 [1]: 22.4 nM
- Solubility, Aqueous ([2]; literature values): 1 to 10.0 µg/mL
- Solubility, DMSO ([2]; literature values): >100 mg/mL
- Solubility, Ethanol ([2]; literature values): >100 mg/mL

Structure (SMILES): CO[C@H]1C[C@@H]2CC[C@@H](C)[C@@](O)(O2)C(=O)C(=O)N2CCCC[C@H]2C(=O)O[C@H]([C@H](C)C[C@@H]2CC[C@@H](OC(=O)C(C)(CO)CO)[C@H](OC)C2)CC(=O)[C@H](C)/C=C(\C)[C@@H](O)[C@@H](OC)C(=O)[C@H](C)C[C@H](C)/C=C/C=C/C=C/1C [temsirolimus]
- IC50 [1]: 15.9 nM
- Solubility, Aqueous ([2]; literature values): 10 to 20 µg/mL
- Solubility, DMSO ([2]; literature values): >200 mg/mL
- Solubility, Ethanol ([2]; literature values): >200 mg/mL

Structure (SMILES): CC(C)n1nc(-c2cc3cc(O)ccc3[nH]2)c2c(N)ncnc21 [PP242, 2-(4-Amino-1-isopropyl-1H-pyrazolo[3,4-d]pyrimidin-3-yl)-1H-indol-5-ol]
- Solubility, PEG 400 [4]: >126 mg/g

Structure (SMILES): CO[C@H]1C[C@@H]2CC[C@@H](C)[C@@](O)(O2)C(=O)C(=O)N2CCCC[C@H]2C(=O)O[C@H]([C@H](C)C[C@@H]2CC[C@@H](O)[C@H](OC)C2)CC(=O)[C@H](C)/C=C(\C)[C@@H](O)[C@@H](OC)C(=O)[C@H](C)C[C@H](C)/C=C/C=C/C=C/1C [sirolimus, rapamycin]
- Solubility, DMSO [4]: >472 mg/g
- Solubility, PEG 400 [4]: 3 mg/g
- physical state when formulated in PEG400 [4]: suspension
- IC50 [1]: 29.5 nM
- Rapamycin level, Blood (in vivo; 1 day): 2.84 ng/mL
- Rapamycin level, Blood (in vivo; 3 day): 27.29 ng/mL
- concentration at 1 day (in vivo; Rapamycin level, Blood): 4.63 ng/mL
- concentration at 3 day (in vivo; Rapamycin level, Blood): 37.1 ng/mL
- concentration at 8 day (in vivo; Rapamycin level, Blood): 15.5 ng/mL
- concentration at 10 day (in vivo; Rapamycin level, Blood): 7.67 ng/mL
- concentration at 12 day (in vivo; Rapamycin level, Blood): 2.88 ng/mL
- concentration at 14 day (in vivo; Rapamycin level, Blood): 48.3 ng/mL
- concentration at 8 day (in vivo; Rapamycin level, Cornea): 169 ng/g
- concentration at 10 day (in vivo; Rapamycin level, Cornea): 110 ng/g
- concentration at 12 day (in vivo; Rapamycin level, Cornea): 97.9 ng/g
- concentration at 14 day (in vivo; Rapamycin level, Cornea): 84.2 ng/g
- concentration remaining in the vitreous after a single injection [5]: Sustained concentrations
- Solubility, Ethanol ([2]; literature value): >90 mg/g
- Solubility, Aqueous ([2]; literature values): 1 to 2.6 µg/mL

Structure (SMILES): C=CC[C@@H]1/C=C(\C)C[C@H](C)C[C@H](OC)[C@H]2O[C@@](O)(C(=O)C(=O)N3CCCC[C@H]3C(=O)O[C@H](/C(C)=C/[C@@H]3CC[C@@H](O)[C@H](OC)C3)[C@H](C)[C@@H](O)CC1=O)[C@H](C)C[C@@H]2OC [tacrolimus]
- potency as inhibitor of VEGF-induced proliferation relative to the other compounds tested [1]: less potent inhibitors of VEGF-induced proliferation than the other compounds tested
- IC50 [1]: 324000 nM

Structure (SMILES): COc1ccc(COc2cc3oc(=O)c4cc(C(C)O)ccc4c3cc2OC)cc1 (stereo not shown) [palomid 529, 8-(1-hydroxy-ethyl)-2-methoxy-3-(4-methoxy-benzyloxy)-benzo[c]chromen-6-one]
- potency as inhibitor of VEGF-induced proliferation relative to the other compounds tested [1]: less potent inhibitors of VEGF-induced proliferation than the other compounds tested

Structure (SMILES): CC(C)n1nc(-c2cccc(C(=O)NC3=NCCS3)c2)c2c(N)ncnc21 [PP30]
- Solubility, PEG 400 [4]: >13 mg/g and <22 mg/g
